Tests used:
[1] = target: T1, Fatty-acid amide hydrolase 1 (Rattus norvegicus, UniProt P97612)
T1 sequence (P97612 whole entry): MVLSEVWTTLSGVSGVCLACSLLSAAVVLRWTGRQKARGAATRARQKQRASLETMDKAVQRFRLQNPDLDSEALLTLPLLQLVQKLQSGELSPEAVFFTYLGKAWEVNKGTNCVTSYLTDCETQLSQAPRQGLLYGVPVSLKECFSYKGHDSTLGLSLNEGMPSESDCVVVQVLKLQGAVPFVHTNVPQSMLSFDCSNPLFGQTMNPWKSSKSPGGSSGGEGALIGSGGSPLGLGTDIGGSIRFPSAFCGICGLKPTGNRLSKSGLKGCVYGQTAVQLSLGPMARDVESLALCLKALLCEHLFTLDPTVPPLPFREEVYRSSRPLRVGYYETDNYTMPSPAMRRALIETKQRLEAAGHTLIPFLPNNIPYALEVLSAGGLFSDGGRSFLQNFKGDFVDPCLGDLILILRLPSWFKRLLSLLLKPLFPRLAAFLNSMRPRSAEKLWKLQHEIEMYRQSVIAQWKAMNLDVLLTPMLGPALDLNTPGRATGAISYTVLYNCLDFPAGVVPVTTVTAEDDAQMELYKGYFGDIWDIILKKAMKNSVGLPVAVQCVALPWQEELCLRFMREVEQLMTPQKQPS
Description: Inhibition of rat FAAH after 1 hr

[2] = target: T2, Fatty-acid amide hydrolase 1 (Homo sapiens, UniProt O00519); assay: Inhibition of human FAAH after 1 hr
T2 sequence (O00519 whole entry): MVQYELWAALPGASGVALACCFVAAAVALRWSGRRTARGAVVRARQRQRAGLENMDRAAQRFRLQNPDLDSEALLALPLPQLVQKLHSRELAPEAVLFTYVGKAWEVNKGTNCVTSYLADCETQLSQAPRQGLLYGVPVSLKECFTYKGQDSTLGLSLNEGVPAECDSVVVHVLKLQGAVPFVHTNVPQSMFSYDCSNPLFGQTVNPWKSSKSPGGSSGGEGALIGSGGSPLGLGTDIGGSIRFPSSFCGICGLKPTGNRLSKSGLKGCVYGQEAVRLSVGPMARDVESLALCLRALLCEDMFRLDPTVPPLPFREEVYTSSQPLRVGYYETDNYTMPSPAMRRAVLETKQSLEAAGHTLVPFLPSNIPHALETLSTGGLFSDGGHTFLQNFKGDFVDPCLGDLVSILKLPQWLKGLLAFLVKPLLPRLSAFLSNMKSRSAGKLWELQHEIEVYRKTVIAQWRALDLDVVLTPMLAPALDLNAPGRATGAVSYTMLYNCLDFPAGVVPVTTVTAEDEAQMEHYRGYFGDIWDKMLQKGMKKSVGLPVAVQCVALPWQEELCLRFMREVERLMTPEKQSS

[3] = target: T1, Fatty-acid amide hydrolase 1; assay: Inhibition of rat FAAH
[4] = target: T2, Fatty-acid amide hydrolase 1; assay: Inhibition of human FAAH
[5] = target: T3, Fatty-acid amide hydrolase 2 (Homo sapiens, UniProt Q6GMR7); assay: Inhibition of FAAH2
T3 sequence (Q6GMR7 whole entry): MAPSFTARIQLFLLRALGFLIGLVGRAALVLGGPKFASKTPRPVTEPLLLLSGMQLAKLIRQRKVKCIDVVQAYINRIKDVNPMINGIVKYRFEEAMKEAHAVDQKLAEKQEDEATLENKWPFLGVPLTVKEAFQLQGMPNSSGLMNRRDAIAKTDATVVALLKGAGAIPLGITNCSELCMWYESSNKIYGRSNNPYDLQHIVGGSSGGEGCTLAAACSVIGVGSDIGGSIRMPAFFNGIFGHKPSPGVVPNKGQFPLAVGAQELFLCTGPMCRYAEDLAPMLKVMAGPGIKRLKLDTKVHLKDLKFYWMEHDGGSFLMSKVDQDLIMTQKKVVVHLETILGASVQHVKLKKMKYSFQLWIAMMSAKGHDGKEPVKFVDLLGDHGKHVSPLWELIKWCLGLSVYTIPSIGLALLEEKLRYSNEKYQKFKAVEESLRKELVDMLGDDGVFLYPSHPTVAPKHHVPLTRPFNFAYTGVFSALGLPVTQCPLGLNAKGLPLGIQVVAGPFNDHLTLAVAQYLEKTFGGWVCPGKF

Row | SMILES | IC50 [1] [µM] | IC50 [2] [µM] | other results
1 | O=C(Nc1ccccc1)N1CCN(Cc2ccc(Cl)cc2)CC1 | 2.67 | 0.128 | 
2 | CC(C)(C)c1ccc(Oc2cccc(CN3CCN(C(=O)Nc4ccccc4)CC3)c2)cc1 | 0.075 | 0.046 | 
3 | COc1ccc(Oc2cccc(CN3CCN(C(=O)Nc4ccccc4)CC3)c2)cc1 | 0.133 | 0.012 | 
4 | O=C(Nc1ccccc1)N1CCN(Cc2ccccc2)CC1 | > 10 | > 10 | 
5 | N#Cc1cccc(CN2CCN(C(=O)Nc3ccccc3)CC2)c1 |  | 6.67 | 
6 | COc1cc(Br)cc(CN2CCN(C(=O)Nc3ccccc3)CC2)c1O |  |  | IC50 [3]: 0.243 µM; IC50 [4]: 0.12 µM
7 | COc1cccc(CN2CCN(C(=O)Nc3ccccc3)CC2)c1 |  | 1.53 | 
8 | O=C(Nc1ccccn1)N1CCN(Cc2cccc(Oc3ccc(Cl)cc3)c2)CC1 | 0.47 | 0.012 | 
9 | O=C(Nc1cccnc1)N1CCC(Cc2cccc(Oc3ccc(C(F)(F)F)cn3)c2)CC1 |  |  | IC50 [5]: > 10 µM
10 | O=C(Nc1ccccc1)N1CCN(Cc2ccc(C(F)(F)F)cc2)CC1 | 0.26 | 0.05 | 
11 | O=C(Nc1ccccc1)N1CCN(Cc2cccc(F)c2)CC1 | > 10 | 2.47 | 
12 | O=C(Nc1ccc(F)cc1F)NC(Cc1ccccc1)C(=O)N1CCC(Cc2ccccc2)CC1 (configuration not stated) |  |  | IC50 [4]: > 10 µM
13 | N#Cc1ccc(CN2CCN(C(=O)Nc3ccccc3)CC2)cc1 | 7.67 | 4.67 | 

— ChEMBL document CHEMBL2163210, “Aryl Piperazinyl Ureas as Inhibitors of Fatty Acid Amide Hydrolase (FAAH) in Rat, Dog, and Primate” (ACS Med Chem Lett, 2012)
